Measured values: US12103937B2, “Substituted pyridines and pyridazines as TYK2 inhibitors” (Sudo Biosciences Limited, priority 2021, dated 2024)

Key:
[1] = tested on: HEK-Blue IFNγ reporter cells, IFNγ-stimulated STAT1 SEAP reporter; assay: HEK-Blue IFNγ reporter assay (SEAP) for determining selectivity; assay type: cell-based; conditions: Homo sapiens, 50 ng/mL human recombinant IFNγ, SEAP readout, read-out: IFN-γ (SEAP selectivity, IC50 class)
Experimental: (§1) HEK-Blue™ IL-2 and IFNγ reporter cells with a stably-integrated cytokine receptor and STAT5 or STAT1 express STAT-inducible secreted embryonic alkaline phosphatase (SEAP) reporter gene upon cytokine stimulation. These cells were plated in DMEM (Gibco) containing 10% heat-inactivated FBS (Gibco) and 100 U/mL PenStrep (Gibco) at 37° C. under 5% CO2 conditions for 20-22 hours. The cells were then pretreated with serially diluted test compounds for 60 min prior to stimulation with either 4 ng/mL human recombinant IL-2 (Miltenyl Biotech) or 50 ng/mL human recombinant IFNγ (InvivoGen) for 24 hours. SEAP induction was measured using the QUANTI-Blue™ Solution (InvivoGen) according to the manufacturer's instructions.

[2] = tested on: HEK-Blue IL-2 reporter cells, IL-2-stimulated STAT5 SEAP reporter; assay: HEK-Blue IL-2 reporter assay (SEAP) for determining selectivity; assay type: cell-based; conditions: 4 ng/mL human recombinant IL-2, SEAP readout, read-out: IL-2 (SEAP selectivity, IC50 class)
Experimental: as §1

Row | SMILES | IC50 [1] | IC50 [2]
1 | [2H]C([2H])([2H])NC(=O)c1nnc(NC(=O)C2CC2)cc1Nc1nccc2c1N(C)[C@@H](C)c1nc(C)nn1-2 [Compound 112, (S)-6-(cyclopropanecarboxamido)-N-(methyl-d3)-4-((2,4,5-trimethyl-4,5-dihydropyrido[3,4-e][1,2,4]triazolo[1,5-a]pyrazin-6-yl)amino)pyridazine-3-carboxamide] | > 1000 nM | > 1000 nM
2 | [2H]C([2H])([2H])NC(=O)c1nnc(NC(=O)C2CC2)cc1Nc1nccc2c1N(C)[C@H](C([2H])([2H])[2H])c1nn(C)nc1-2 [Compound 114, (R)-6-(cyclopropanecarboxamido)-4-((2,5-dimethyl-4-(methyl-d3)-4,5-dihydro-2H-[1,2,3]triazolo[4,5-c][1,7]naphthyridin-6-yl)amino)-N-(methyl-d3)pyridazine-3-carboxamide] |  | > 1000 nM
3 | [2H]C([2H])([2H])NC(=O)c1nnc(NC(=O)[C@H]2C[C@H]2F)cc1Nc1nccc2c1N(C)Cc1nn(C)nc1-2 [Compound 115, 4-((2,5-dimethyl-4,5-dihydro-2H-[1,2,3]triazolo[4,5-c][1,7]naphthyridin-6-yl)amino)-6-((1R,2R)-2-fluorocyclopropane-1-carboxamido)-N-(methyl-d3)pyridazine-3-carboxamide] | 30 to 300 nM | 300 to 1000 nM
